# Test results taken from patent US20260335398A1, “METHODS FOR TREATING PANCREATIC CANCER WITH A COMBINATION OF DES-METHYL PATEAMINE A AND A CLASS I HDAC INHIBITOR” (Baylor University, priority 2023, published 2026).
# Columns and labels:
# [1] = tested on: PDAC cell lines (Capan-1, PANC-1, AsPC-1, MIA PaCa-2); test: Cytotoxicity/cell viability (CellTiter-Glo) of DMPatA on PDAC cell lines, 48 h (FIG. 6A); format: cell-based; conditions: four PDAC cell lines (Capan-1, PANC-1, AsPC-1, MIA PaCa-2)
# Experimental: FIG. 6A compares cytotoxicity graphs of the effect (viability) of DMPatA on various PDAC cell lines (Capan-1, PANC-1, AsPC-1, MIA PaCa-2) following 48 hours of treatment.
# (§1) Previous studies have reported that inhibitors of translation initiation prevent cell proliferation and reduce levels of critical oncoproteins such as MYC and cyclinD1. The effects of DMPatA, a novel inhibitor of eIF4A helicase, was evaluated on four PDAC cell lines. All cells were sensitive to treatment with IC50s ranging from 2.8 to 10 nM (FIG. 6A). […] The efficacy of another eIF4Ai, zotatifin (eFT226), was evaluated on MIA PaCa-2 and KLM cells.
# (§2) Cell viability was determined using CellTiter-Glo® reagent (Promega, #G7570) following the manufacturer's instructions. Cells were seeded at […] in white 96-well plates and grown overnight. They were then treated and incubated at 37 °C with 5% CO2. After incubation, assay reagent was added, and luminescent signals were quantified using a microplate reader (PHERAstar® FS, BMG LABTECH, Ortenberg, Germany). Caspase-Glo 3/7 assay (Promega, #G8091) was also employed following the manufacturer's instructions to measure apoptosis.
# MIA PaCa-2 and KLM cells [2] = test: RNA-seq gene expression analysis (FIG. 9A); format: cell-based; conditions: total 18 h (6 h romidepsin 15 nM + 12 h with/without DMPatA 2 nM); |log2FC|≥1, adjusted p<0.05
# Experimental: Plots show a significant increase in the overall gene expression in the cells treated with the combination. Cells treated for a total of 18 h (i.e., 6-hour romidepsin followed by 12-hour incubation with 2 nM DMPatA (combo) or without (Romi alone)).
# To gain further insight into the effects of the combination treatment gene expression was profiled in MIA PaCa-2 and KLM cells treated with vehicle, the single agents, or the combination for a total of 18 h (i.e., 6-hour romidepsin treatment followed by 12-hour washout with 2 nM DMPatA or without), probing whether alterations observed following combination treatment could be explained by changes in gene expression.
# Total RNA was extracted using RNeasy mini kit (Qiagen) from cells collected after 18 hours (6 hours romidepsin (15 nM)+12 hours washout with or without DMPatA (2 nM)) incubation with or without drugs. RNA quantitation and quality were assessed by the Agilent Bioanalyzer 2100 at the Molecular Pathology Shared Resource of the Herbert Irving Comprehensive Cancer Center at Columbia University (mBank). RNA library preparation and sequencing was performed at Columbia University's Sulzberger Genome Center. Briefly, poly-A pull-down was used to enrich mRNAs from total RNA samples, followed by library construction using Illumina TruSeq chemistry. Libraries were then sequenced using Illumina NovaSeq 6000. For the DESeq2 (v 1.40.2) analysis the data were imported with tximport in DESeq2 and a dds object was generated. Variance stabilizing transformation was used on the object and the output was used for the heatmap and PCA plots. Abundance of transcripts was estimated by pseudoalignment using kallisto, and downstream analysis was performed using R (v4.3.1) and the indicated packages. […] Differentially expressed genes were determined using linear regression method (limma v3.56.2), and genes with |log 2FC|≥1 and adjusted p-value <0.05 were plotted accordingly on volcano plots and heatmap (ggplot2 v3.5.0 and ComplexHeatmap v2.16.0). […]
# [3] = Body weight of xenograft mice (FIG. 2B); format: in vivo, athymic nude mice; conditions: IP; romidepsin 0.75 mg/kg, DMPatA 0.075 mg/kg
# Description: FIGS. 2A and 2B illustrate the results of a MIA PaCa-2 xenograft model of PDAC in male athymic nude mice. FIG. 2A compares tumor growth (mm^3) in mice treated with the indicated concentrations of combination, romidepsin and DMPatA using IP route and vehicles described in the materials and methods section below. FIG. 2B compares body weight (g) of mice treated with the combination and single agents following treatment. FIGS. 2C and 2D compare quantification of H3K9ac and c-MYC antibodies. Frozen sections from MIA PaCa-2 xenograft tumor tissues were subjected to immunohistochemical analysis using antibodies against H3K9ac, and c-MYC. Fluorescence images were captured using fluorescent microscopy and the fluorescent signal from H3K9ac and c-MYC antibodies were quantified. To quantify fluorescence intensity at least 500 cells per condition were measured for each antibody at 40× magnification. The median of the signal intensity is shown. Statistical significance was determined by one-way ANOVA using Tukey multiple comparisons test, ****p value<0.0001.
# Animal studies were performed according to Institutional Animal Care and Use Committee (IACUC) protocol number AC-AABD2601. Following the establishment of initial dose levels for individual drugs, efficacy of the combination and single agents in a MIA PaCa-2 xenograft model was assessed at a tolerable dose and schedule. […]
# c-MYC = test: Immunoblot of c-MYC protein levels in PDAC cell lines treated with DMPatA and DMDAPatA (FIG. 6B); format: cell-based; conditions: Capan-1, PANC-1, AsPC-1, MIA PaCa-2; 24 and 48 hours; DMPatA 10 and 20 nM, DMDAPatA 40 nM
# Experimental: FIG. 6B compares immunoblots of c-MYC protein levels from whole cell extracts of various PDAC cell lines (Capan-1, PANC-t, AsPC-1, MIA PaCa-2) treated with DMPatA (10 nM and 20 nM) and DMDPatA ([…]) (40 nM). Treatment was for 24 and 48 hours.
# Western blotting was carried out as previously described (Luchenko V L, Litman T, Chakraborty A R, et al. 65. Membranes were probed with primary antibodies: Phospho-Histone H2A.X (Ser139) (1:1000, Millipore Sigma #05-636), GAPDH (1:10000, Abcam #ab8245), c-Myc (1:1000, Abcam #ab32072), β-Actin (1:1000, Cell Signaling Technology (CST), #8457), Phospho-RPA32/RPA2 (Ser33) (1:1000, Cell Signaling Technology #10148), Phospho-Chk1 (Ser345) (1:1000, CST #2341), and secondary antibodies IRDye® 680RD Goat anti-Mouse and IRDye® 800CW Goat anti-Rabbit (both from LI-COR Biosciences). Signal quantification was performed using the Odyssey CLx imaging system (LI-COR Biosciences), capturing various exposures within the linear range with ImageStudio software V3.1 (LI-COR Biosciences).
# MIA PaCa-2 and KLM cells [4] = test: Cell proliferation with zotatifin on MIA PaCa-2 and KLM cells; format: cell-based
# Experimental: as §1, §2
smiles,measurement,setting,value
"CC(/C=C/C(C)=C/[C@@H]1Cc2nc(cs2)CC[C@@H](N)CC(=O)O[C@@H](C)C/C(C)=C/C=C\C(=O)O1)=C\CN(C)C [DMPatA, des-methyl pateamine A]",IC50,[1],2.8 to 10 nM
same,number of differentially expressed genes (DEGs),MIA PaCa-2 and KLM cells [2],1443 DEGs
same,body weight vs vehicle,[3],neither the single agent nor the combination treatments had a significant impact on weight
"CC(/C=C/C(C)=C/[C@@H]1Cc2nc(cs2)CCCCC(=O)O[C@@H](C)C/C(C)=C/C=C\C(=O)O1)=C\CN(C)C [DMDAPatA, des-methyl des-amino pateamine A]",c-MYC protein levels,c-MYC,reduced c-MYC levels in all cell lines
COc1cc2c(c(OC)n1)[C@]1(O)[C@H](O)[C@H](CN(C)C)[C@@H](c3ccccc3)[C@]1(c1ccc(C#N)cc1)O2 [zotatifin],"potency in suppressing proliferation, DMPatA vs zotatifin",MIA PaCa-2 and KLM cells [4],"reduced potency, compared to DMPatA"
